Measured values taken from patent US20040072790A1, “Safe natural pharmaceutical composition for treating cancer” (priority 2002, published 2004).

Experiments:
human cancer cells = experiment: Inhibition of tumor cell proliferation; assay type: cell-based; details: 1 μg/ml drug, 72 hours
Description: Human tumor cell lines Hela leukemia HL-60, malignant melanocarcinoma B16, oral epidermoid carcinoma (KB), lung carcinoma (A549), breast carcinoma MCF-7, adenocarcinoma of stomach Animal tumor cell lines Walker carcinoma, LLC-WRC-256, malignant melanoma (RMMI 1846), 3T3, and S-180 sarcoma (CCRF-180). All lines were routinely cultured in the RPMI1640 medium supplemented 20% fetal calf serum. The experiment was carried out in 96 microplate, each well had 5×10^5 cells and given desired concentration of 1 μg /ml (1×10^−6 g/ml) drug Then the plate was incubated at 37° C. in an atmosphere of humidified air enriched with 5 percent carbon dioxide for 72 hours
Inhibition percent rate of tumor cell proliferation was obtained according to the bellow formula [formula]

[1] = tested on: Human leukemia cells (HL-60); experiment: Apoptosis of human leukemia cells; assay type: cell-based
Description: Human leukemia cells (HL-60) were grown in RPMI Medium 1640 supplemented with 10% (v/v) heat-inactivated FBS (56° C. for 30 min) at 37° C. in a humidified 95% air/5% CO2 atmosphere. Cells were seeded at a level of 2×10^5 cells/ml Cells were allowed to attain a maximum density of 1 2×10^6 cells/ml before being passed by dilution into fresh medium to a concentration of 2×10^5 cells/ml Cell pellets containing 5×10^6 cells were fixed with 2 5% glutaraldehyde in cacodylate buffer (pH 7 4), dehydrated through graded alcohol, and infiltrated with LX-112 epoxy resin. After overnight polymerization at 60° C. 1-μm sections were cut with glass knives using a microtome.
(§1) Cells ([…] were incubated in 10 ml IMDM plus […] heat-inactivated fetal calf serum. Samples were incubated for 24 hours with various concentrations of drugs Control samples received the same amount of media, without drug addition After 24 hours of incubation the samples were pelleted and fixed in ethanol 705 for 15 minutes at 4° C., after three washes in PBS, the cells were treated with PNase I 0.5 mg/ml for 15 minutes at 37° C. The cells were harvested by centrifugation and resuspended in 50 μg/ml propidium iodide in PBS. Analysis (upon acquisition of 10,000-20,000 events) was performed on a FACscan flow cytometer with the FL2 detector in logarithmic mode, using Lysis II software (Becton Dickinson). Apoptotic cells were located in the hypodiploid region of the histogram, due to chromosome condensation and fragmentation
(§2) For evaluation of apoptosis by flow cytometry, cells were fixed and permeabilized in 1% paraformaldehyde and ice-cold 70% ethanol Digoxigenin-dUTP was incorporated at the 3′OH ends of the fragmented DNA in the presence of terminal deoxynucleotidyltranserase, and the cells were incubated with FITC-labeled anti-digoxigenin-dUTP and with propidium iodide. Green (apoptotic cells) and orange (total DNA) fluorescence were measured with a FACScan flow cytometer and analyzed with LYSIS It and CELLFIT programs Data were analyzed by Student's t-test P values were considered significant when <0.05.
(§3) Untreated and treated HL-60 cells collected by centrifugation, washed in phosphate buffered saline and re-suspended at a concentration of 5×10^6 cells and 0.1% RNase A. The mixture was incubated at 37° C. for 30 min and then incubated for an additional 30 min at 37° C. Buffer was added and 25 μl of the tube content transferred to the Horizontal 1.5% agarose gel electrophoresis was performed at 2 V/cm DNA in gels visualized under UV light after staining with ethidium Bromide (5 μg/ml)
DNA fragmentation assays DNA cleavage was performed, quantitation of fractional solubilized DNA by diphenylamine assay and the percentage of cells harboring fragmented DNA determined by in labeling techniques For the diphenylamine assay, 5×10^6 cells were lysed in 0 5 mL lysis buffer (5 mmol/L Tris-HCI, 20 mmol/L DTA, and 0 5% Triton X-100, pH 8 0) at 4° C. […] DNA was precipitated with 0.5 N perchloric acid and quantitated using diphenylamine reagent. The cell cycle distribution was determined 4 hours after addition of drug and represents mean±SD of 5 independent experiments
(§4) Apoptosis of HL-60 cells was assessed by changes in cell morphology and by measurement of DNA nicks using the Apop Tag Kkt (Oncor, Gaithersburg, MD). […] These changes are detected on cytospin preparations stained with Diff-Quick Stain Set Apoptotic cells were enumerated in a total of about 300 cells by light microscopy

[2] = Toxic doses for mice (repeated injection); assay type: in vivo; details: 38 normal mice, injection 2 mg/kg/day×5, observation period of 5 days
Description: Toxic doses for dogs 0 16 mg/kg/day×7 of HHT was established as the toxic doses. Toxic doses for mice In 38 normal mice after injection of HHT of 2 mg/kg/day×5 with the observation period of 5 days about 50% of the mice died.

[3] = tested on: NNK-induced pulmonary adenomas; experiment: NNK-induced lung tumorigenesis; assay type: in vivo; details: mice, drug by injection 20 mg/kg daily, 10 μmol NNK i.p., sixteen weeks
Description: Every group had 20 mice For treatment group, each mouse was gave Drug by injection at dose of 20 mg/kg daily. For control group, each mouse was gave same volume of physiological saline Three days later, mice were gave 10 μmol NNK (in 0.1 ml saline) by i.p injection. Sixteen weeks after these treatments the mice were killed and pulmonary adenomas were counted The statistical significance of bioassay data was determined by student's test.

carcinogen-DNA binding = experiment: Inhibition of carcinogen-DNA binding; assay type: cell-based
Description: Cells were maintained in 75-cm^2 tissue culture flask with media supplemented with retinoic acid (0 1 μg/ml) and epinephrine (0 5 μg/ml) The cells were passage when they reached approximately 80% confluence and were maintained at 37° C. in 5% CO2. Cells were plated at a density of 5×10^5 cells/well in 6-well tissue culture plates and allowed to incubated for 18 h at 37° C. in 5% CO2 Following incubation, the DNA was harvested and resuspended in Tris-EDTA buffer RNA was removed by treating with RNase T1 and RNase A at 37° C. for 1 h. An aliquot was used for determining the DNA content by the absorbency at 260 nm, and the rest of the sample was used to determine the radioactivity; the percentage inhibition of carcinogen-DNA binding was determined by measuring the cpm/mg of DNA in the carcinogen

tyrosine kinase (TK) = experiment: Tyrosine kinase (TK) assay of HL-60 leukemia cells; assay type: cell-based, human
Description: Tyrosine kinase (TK) Assay. TK was measured by a modification of the method of Braun et al Briefly, H-60 leukemia cells were plated at a density of 5×10^5 cells in […], and divided control and treatments groups for incubation 24 hours at 37° C. with 5% CO2. The cells were collected by scraping, washed twice with phosphate-buffered saline, and resuspended at density of 10^6 cells/ml in 5 mM HEPESs buffer (pH 7.4). The cells were then resuspended in 1 ml of buffer containing 5 mM HEPES (pH 7.6), 1 mM MgCl2 and ImM EDTA, then placed on ice bath The cell membrane was disrupted by ultra sound and centrifuged at 1,000×g for 10 minutes The supernatant was ultra centrifuged at 30,000×g for 30 minutes at 4° C. The pellet was resuspended in 0 3 ml of buffer containing 25 mM HEOES, centrifuged at 12,000×g for 5 minutes The resulting supernatant was used for TK assay. Content of protein was determined 10 μg of protein placed in 20 mM HEPES (pH 7 6), 15 mM MgCl2, 10 nM ZnCl2 and 5% (v/v) nonidet P-40, with or without substrate [glutamic acid (GT), mg/ml]. After 5 minutes incubation at 25° C., the reaction was initiated by the addition of 25 μM [γ^32P] ATP (3 ci/mmol) After 10 minutes, the reaction was stopped by the addition of 20 mM cold ATP. 50 μl of the mixtures were spotted on glass microfiber filter discs and washed three times with cold trichloroacetic acid (TCA), contained 1 mM sodium pyrophosphate Air dried. Radioactivity was determined by liquid scintillation spectrometry. The net TK activity was determined after correcting for endogenous TK activity

HL-60 cells = experiment: Diversion (differentiation) of human leukemic cells, NBT reduction; assay type: cell-based; details: IND, MAT, YLE, LIK, APN and PYE 50 ng/ml, higher NBT (%) means higher normal cells
Description: HL-60 cells were established from a patient with acute myeloid leukemia. The cells were cultured in culture flasks with RPMI plus 10% FCS
Differentiation of HL-60 cells was assessed by their abilities to produced superoxide as measured by reduction of NBT, by NSE staining and by morphology as detected on cytospin preparations stained with Diff-Quick stain Set, and by analysis of membrane-bound differentiation markers with two-color immunofluorescence Briefly, cells were preincubated at 4° C. for 60 min in 10% human AB serum and then with FITC-conjugated mouse IgGI isotype control Analysis of fluorescence was performed on a flow cytometer.
NBT % indicated percentage of normal cells

gastric cancer cells = experiment: Diversion of gastric cancer cells, NBT; assay type: cell-based
Description: The gastric cancer cells and normal cells were cultured in PRMI 1640 medium supplement with 10% FCS serum Other method is similar to example 10

Normal cells = experiment: Apoptosis of normal cells; assay type: cell-based
Description: as §1, §2, §3
DNA fragmentation assays DNA cleavage was performed, quantitation of fractional solubilized DNA by diphenylamine assay and the percentage of cells harboring fragmented DNA determined by in labeling techniques For the diphenylamine assay, 5×10^6 cells were lysed in 0 5 mL lysis buffer (5 mmol/L Tris-HCI, 20 mmol/L DTA, and 0 5% Triton X-100, pH 8 0) at 4° C. Lysates were centrifuged (15,000 g) for separation of high molecular weight DNA (pellet) and DNA cleavage products (supernatant). DNA was precipitated with 0.5 N perchloric acid and quantitated using diphenylamine reagent. The cell cycle distribution was determined 4 hours after addition of drug and represents mean±SD of 5 independent experiments
as §4

L615 transplanted tumor = experiment: Growth of transplanted tumor in mice; assay type: in vivo; details: intraperitoneally, other drugs 20 mg/kg, sacrificed on the 12th day
Description: Male mice, weight 20-22 g, were used in the experiment 1×10^7 tumor cells were injected to mouse and other drugs injected intraperitoneally began second day. All mice were sacrificed on the 12th day, isolated the tumor and weighed and calculated the inhibition rate of tumor weight
The effect of other drugs and HHT on the growth of animal transplanted tumor as illustrated by the Table 6 20 mg/kg of other drugs could inhibit the growth of L615 transplanted tumor.

[4] = tested on: lipid peroxidation, liver microsome; experiment: Lipid peroxidation in liver microsome (MDA, TBA); assay type: biochemical, rats; details: drug 50 μM, 37° C.
Description: The liver microsome (1 mg protein) in 0.15 M KCl, 0 25 M Tris-HCl buffer, pH 7.5, 2 mμ ADP, 10 μM FeSO4 and Drug B (50 μM) were incubated at 37° C. for 5 min The reactions were terminated after 30 min by added 2 ml thiobarbituric acid (TBA) and content of the malondialdehyde (MDA) formed was determined.

Substance: Homoharringtonine [HHT]
- Inhibition (%) of growth of cancer cells (human cancer cells): 73.8 ± 8.1%
- Apoptosis (%) ([1]; Human leukemia cell, HHT 50 ng/ml alone or with 50 ng/ml of the other drug (Table 4)): 42.8 ± 5.2%
- Apoptosis (%) ([1]; Human leukemia cells, HHT 10 ng/ml): 33.8 ± 4.8 %
- Apoptosis (%) ([1]; Human leukemia cells, HHT 50 ng/ml): 42.8 ± 5.2 %
- Apoptosis (%) ([1]; Human leukemia cells, HHT 100 ng/ml): 60.2 ± 8.9 %
- Apoptosis (%) ([1]; Human leukemia cells, HHT 500 ng/ml): 92.0 ± 10.8 %
- mice died [2]: about 50%
- Tumor incidence (%) [3]: 35.8 ± 4.5%
- Inhibition (%) of carcinogen-DNA binding (carcinogen-DNA binding): 56.8 ± 6.2%
- inhibition of TK activity (tyrosine kinase (TK); HL-60, 10^−8 M): 12.2%
- % of control activity (TK) (tyrosine kinase (TK); HL-60 leukemia cells, 10^−6 M, 24 hours): 0.6%
- % of control activity (TK) (tyrosine kinase (TK); HL-60 leukemia cells, 10^−7 M, 24 hours): 21.5 ± 4.0%
- % of control activity (TK) (tyrosine kinase (TK); HL-60 leukemia cells, 10^−8 M, 24 hours): 87.8 ± 12%
- % of control activity (TK) (tyrosine kinase (TK); Table 8, HHT alone or with other drug, concentration not given): 21.5 ± 4.0%
- NBT (%) (HL-60 cells): 65 ± 7.0 %
- NBT (%) (gastric cancer cells): 58 ± 8.9 %
- Apoptosis (%) (Normal cells; HHT 10 ng/ml): 16.5 ± 2.0 %
- Apoptosis (%) (Normal cells; HHT 50 ng/ml): 18.5 ± 2.5 %
- Apoptosis (%) (Normal cells; HHT 50 ng/ml alone or with 50 ng/ml of the other drug (Table 4)): 18.5 ± 2.5%
- Apoptosis (%) (Normal cells; HHT 100 ng/ml): 22.0 ± 3.5 %
- Apoptosis (%) (Normal cells; HHT 500 ng/ml): 29.5 ± 5.2 %
- Inhibition (%) of transplanted tumor (tumor weight) (L615 transplanted tumor): 68 ± 7.2%
- Nmoles MDA/mg protein [4]: 8.5 ± 1.0 Nmoles MDA/mg protein
